Legend:
[1] = Half life in human; assay type: ADME
[2] = Oral bioavailability in human; assay type: ADME, organism-based; conditions: in vivo
[3] = Drug excretion in human feces assessed as daclatasvir level; assay type: ADME, tissue-based; conditions: faeces, read-out: Drug excretion
[4] = Drug excretion in human feces assessed as dasabuvir level; assay type: ADME, tissue-based; conditions: faeces, read-out: Drug excretion
[5] = Absolute bioavailability in human; assay type: ADME, organism-based; conditions: in vivo
[6] = Drug excretion in human feces assessed as ombitasvir level; assay type: ADME, tissue-based; conditions: faeces, read-out: Drug excretion
[7] = Oral bioavailability in human under fed condition; assay type: ADME, organism-based; conditions: in vivo
[8] = Half life in HIV infected human; assay type: ADME

| SMILES | half-life [1] | also measured |
| --- | --- | --- |
| C[C@@]1(F)[C@H](O)[C@@H](CO)O[C@H]1n1ccc(=O)[nH]c1=O | 27 h |  |
| COC(=O)N[C@H](C(=O)N1CCC[C@H]1c1nc(-c2ccc(-c3ccc(-c4c[nH]c([C@@H]5CCCN5C(=O)[C@@H](NC(=O)OC)C(C)C)n4)cc3)cc2)c[nH]1)C(C)C [DACLATASVIR] | 12 to 15 h | bioavailability [2]: 67%; dose excreted [3]: 53% |
| COc1c(-c2ccc3cc(NS(C)(=O)=O)ccc3c2)cc(-n2ccc(=O)[nH]c2=O)cc1C(C)(C)C [DASABUVIR] | 5.5 to 6 h | dose excreted [4]: 26.2%; bioavailability [5]: 70% |
| COC(=O)N[C@H](C(=O)N1CCC[C@H]1c1nc(-c2ccc3c(c2)O[C@@H](c2ccccc2)n2c-3cc3cc(-c4c[nH]c([C@@H]5CCCN5C(=O)[C@@H](NC(=O)OC)C(C)C)n4)ccc32)c[nH]1)C(C)C [ELBASVIR] | 24 h |  |
| CC(C)(C)[C@@H]1NC(=O)O[C@@H]2CCC[C@H]2OC/C=C/C(F)(F)c2nc3ccccc3nc2O[C@@H]2C[C@@H](C(=O)N[C@]3(C(=O)NS(=O)(=O)C4(C)CC4)C[C@H]3C(F)F)N(C2)C1=O [GLECAPREVIR] | 6 h |  |
| C=C[C@@H]1C[C@]1(NC(=O)[C@@H]1C[C@@H]2CN1C(=O)[C@H](C(C)(C)C)NC(=O)O[C@@H]1C[C@H]1CCCCCc1nc3ccc(OC)cc3nc1O2)C(=O)NS(=O)(=O)C1CC1 [GRAZOPREVIR ANHYDROUS] | 31 h |  |
| COC(=O)N[C@H](C(=O)N1CC2(CC2)C[C@H]1c1ncc(-c2ccc3c(c2)C(F)(F)c2cc(-c4ccc5nc([C@@H]6[C@H]7CC[C@H](C7)N6C(=O)[C@@H](NC(=O)OC)C(C)C)[nH]c5c4)ccc2-3)[nH]1)C(C)C [LEDIPASVIR] | 47 h | bioavailability [2]: 76% |
| COC(=O)N[C@H](C(=O)N1CCC[C@H]1C(=O)Nc1ccc([C@@H]2CC[C@@H](c3ccc(NC(=O)[C@@H]4CCCN4C(=O)[C@@H](NC(=O)OC)C(C)C)cc3)N2c2ccc(C(C)(C)C)cc2)cc1)C(C)C [OMBITASVIR] | 21 to 25 h | bioavailability [5]: 48%; dose excreted [6]: 90.2% |
| Cc1cnc(C(=O)N[C@H]2CCCCC/C=C\[C@@H]3C[C@@]3(C(=O)NS(=O)(=O)C3CC3)NC(=O)[C@@H]3C[C@@H](Oc4nc5ccccc5c5ccccc45)CN3C2=O)cn1 [PARITAPREVIR] | 5.5 h | bioavailability [5]: 53% |
| COC(=O)N[C@H](C(=O)N1CCC[C@H]1c1nc2cc([C@H]3CC[C@H](c4cc5nc([C@@H]6CCCN6C(=O)[C@@H](NC(=O)OC)[C@@H](C)OC)[nH]c5cc4F)N3c3cc(F)c(N4CCC(c5ccc(F)cc5)CC4)c(F)c3)c(F)cc2[nH]1)[C@@H](C)OC [PIBRENTASVIR] | 23 to 29 h |  |
| COc1ccc2c(O[C@@H]3C[C@H]4C(=O)N[C@]5(C(=O)NS(=O)(=O)C6CC6)C[C@H]5/C=C\CCCCN(C)C(=O)[C@@H]4C3)cc(-c3nc(C(C)C)cs3)nc2c1C [SIMEPREVIR] | 10 to 13 h | bioavailability [7]: 62%; half-life [8]: 41 h |
| CC(C)OC(=O)[C@H](C)N[P@](=O)(OC[C@H]1O[C@@H](n2ccc(=O)[nH]c2=O)[C@](C)(F)[C@@H]1O)Oc1ccccc1 [SOFOSBUVIR] | 0.4 h | bioavailability [2]: 92% |
| COC[C@H]1C[C@@H](c2ncc(-c3ccc4c(c3)COc3cc5c(ccc6nc([C@@H]7CC[C@H](C)N7C(=O)[C@@H](NC(=O)OC)C(C)C)[nH]c65)cc3-4)[nH]2)N(C(=O)[C@H](NC(=O)OC)c2ccccc2)C1 [VELPATASVIR] | 15 h |  |

Source: ChEMBL document CHEMBL4609973, “Hepatitis C - New drugs and treatment prospects” (Eur J Med Chem, 2019)
